Earlier results, collected in patent US5990112A, “Inhibitors of metalloproteases pharmaceutical compositions comprising same and methods of their use” (Affymax Technologies N.V., priority 1996, dated 1999).

Legend:
[1] = target: human rheumatoid synovial collagenase
[2] = target: rabbit bone proteoglycanase; conditions: Delaisse et al. 1985

For CNC(=O)[C@H](Cc1ccc(OC)cc1)NC(=O)[C@H](CC(C)C)NC(CCNC(=O)OCc1ccccc1)C(=O)O (stereo partly drawn) [N-[3-(benzyloxy-carbonyl)amino-1-carboxy-n-propyl]-L-leucyl-O-methyl-L-tyrosine, N-methylamide], the IC50 [1] is given as less than 8000 nM and the IC50 [2] is given as 500 nM.
